This test deals with human GLP1R (Homo sapiens (Human), UniProt P43220). Briefly: In vitro cAMP signal activation in human GLP1R stably-expressing cell line (hGLP1R-HEK293). It is filed as cell-based. The conditions noted are these: cAMP concentration in hGLP1R-HEK293; 100% = 1 nM human GLP-1 (7-37). As for the experimental part:
<Test Example 1> Measurement of In Vitro cAMP Signal Activation of a Compound in Human GLP1R
A human GLP1R stably-expressing cell line (hGLP1R-HEK293) was used in the experiment. The cells were cultured in a Dulbecco's modified Eagle's medium (DMEM) containing 10% fetal bovine serum (Sigma-Aldrich), 100 units/mL penicillin G and 100 μg/mL streptomycin sulfate (Gibco), and 500 μg/mL Geneticin (Gibco), under a moist atmosphere containing 5% CO2, at 37° C.
hGLP1R-HEK293 was seeded in 96 well plates at 2.0×10^4 cells per well and cultured over night. The medium for culturing the cells was changed to 50 μL of Medium A (DMEM, 20 mM HEPES, 0.05% BSA, 0.5 mM 3-isobutyl-1-methylxanthine) the next day, and the cells were incubated at 37° C. for 30 min. Then, 50 μL of Medium B (DMEM, 20 mM HEPES, 0.05% BSA, 0.5 mM 3-isobutyl-1-methylxanthine) containing GLP-1 or the compound was added, and the cells were incubated at 37° C. for an additional 30 min. Then, 100 μL of Assay lysis buffer (Applied Bioscience) was added, and the cells were incubated at 37° C. for 30 min. The cAMP concentration was quantified using cAMP HiRange kit (Cisbio Bioassays).
By setting the cAMP concentration when the human GLP-1 (7-37) was put into action at a concentration of 1 nM to 100%, the cAMP concentration of each well was converted to a reaction rate (%).

human GLP1R, sequence (P43220 24-463): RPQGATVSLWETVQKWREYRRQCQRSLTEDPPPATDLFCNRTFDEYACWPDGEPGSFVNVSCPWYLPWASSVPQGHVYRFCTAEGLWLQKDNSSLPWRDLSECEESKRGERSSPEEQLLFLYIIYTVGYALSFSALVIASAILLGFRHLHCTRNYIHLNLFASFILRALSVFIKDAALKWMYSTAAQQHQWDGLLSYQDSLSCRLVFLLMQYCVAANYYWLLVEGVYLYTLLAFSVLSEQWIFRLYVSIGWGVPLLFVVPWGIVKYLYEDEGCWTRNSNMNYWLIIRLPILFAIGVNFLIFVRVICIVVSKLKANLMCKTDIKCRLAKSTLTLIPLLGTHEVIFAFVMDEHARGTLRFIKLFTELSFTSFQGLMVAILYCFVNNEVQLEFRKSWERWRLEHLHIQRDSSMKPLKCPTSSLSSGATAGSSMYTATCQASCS

The EC50 is the concentration giving half of the maximal effect. Lower therefore signals greater potency. `COc1nccc(-c2ccc3c(c2)cc(C(=O)N2CCc4nn(-c5cc(C)c(F)c(C)c5)c(-n5ccn(-c6ccc7c(cnn7CC(C)(C)O)c6)c5=O)c4C2)n3[C@@]2(c3noc(=O)[nH]3)C[C@@H]2C)c1C` [Example 6, 3-[(1S,2S)-1-[2-[2-(4-fluoro-3,5-dimethylphenyl)-3-[3-[1-(2-hydroxy-2-methylpropyl)indazol-5-yl]-2-oxoimidazol-1-yl]-6,7-dihydro-4H-pyrazolo[4,3-c]pyridine-5-carbonyl]-5-(2-methoxy-3-methylpyridin-4-yl)indol-1-yl]-2-methylcyclopropyl]-4H-1,2,4-oxadiazol-5-one] had an EC50 of 2.9 nM. Take `Cc1cc(-n2nc3c(c2-n2ccn(-c4ccc5c(cnn5CC(F)(F)F)c4F)c2=O)[C@H](C)N(C(=O)c2cc4cc([C@H]5CCOC(C)(C)C5)ccc4n2[C@@]2(c4noc(=O)[nH]4)C[C@@H]2C)CC3)cc(C)c1Cl` [Example 42, 3-[(1S,2S)-1-[2-[(4S)-2-(4-chloro-3,5-dimethylphenyl)-3-[3-[4-fluoro-1-(2,2,2-trifluoroethyl)indazol-5-yl]-2-oxoimidazol-1-yl]-4-methyl-6,7-dihydro-4H-pyrazolo[4,3-c]pyridine-5-carbonyl]-5-[(4S)-2,2-dimethyloxan-4-yl]indol-1-yl]-2-methylcyclopropyl]-4H-1,2,4-oxadiazol-5-one]: the EC50 worked out at 1.9 nM. As for `COCCn1ncc2c(F)c(-n3ccn(-c4c5c(nn4-c4cc(C)c(F)c(C)c4)CCN(C(=O)c4cc6cc([C@H]7CCOC(C)(C)C7)ccc6n4[C@@]4(c6noc(=O)[nH]6)C[C@@H]4C)[C@H]5C)c3=O)ccc21` [Example 36, 3-[(1S,2S)-1-[5-[(4S)-2,2-dimethyloxan-4-yl]-2-[(4S)-2-(4-fluoro-3,5-dimethylphenyl)-3-[3-[4-fluoro-1-(2-methoxyethyl)indazol-5-yl]-2-oxoimidazol-1-yl]-4-methyl-6,7-dihydro-4H-pyrazolo[4,3-c]pyridine-5-carbonyl]indol-1-yl]-2-methylcyclopropyl]-4H-1,2,4-oxadiazol-5-one], the EC50 amounted to 2.1 nM.

Take `CC[C@H]1C[C@]1(c1noc(=O)[nH]1)n1c(C(=O)N2CCc3nn(-c4cc(C)c(F)c(C)c4)c(-n4ccn(-c5ccc6c(cnn6C)c5)c4=O)c3C2)cc2cc(C3CCOCC3)ccc21` [compound 78, 3-[(1S,2S)-2-Ethyl-1-[2-[2-(4-fluoro-3,5-dimethylphenyl)-3-[3-(1-methylindazol-5-yl)-2-oxoimidazol-1-yl]-6,7-dihydro-4H-pyrazolo[4,3-c]pyridine-5-carbonyl]-5-(oxan-4-yl)indol-1-yl]cyclopropyl]-4H-1,2,4-oxadiazol-5-one]: the response was half-maximal at 3.6 nM (EC50).

Regarding `Cc1cc(-n2nc3c(c2-n2ccn(-c4ccc5c(cnn5C)c4Cl)c2=O)[C@H](C)N(C(=O)c2cc4cc([C@H]5CCOC(C)(C)C5)ccc4n2[C@@]2(c4noc(=O)[nH]4)C[C@@H]2C)CC3)ccc1F` [Example 49, 3-[(1S,2S)-1-[2-[(4S)-3-[3-(4-chloro-1-methylindazol-5-yl)-2-oxoimidazol-1-yl]-2-(4-fluoro-3-methylphenyl)-4-methyl-6,7-dihydro-4H-pyrazolo[4,3-c]pyridine-5-carbonyl]-5-[(4S)-2,2-dimethyloxan-4-yl]indol-1-yl]-2-methylcyclopropyl]-4H-1,2,4-oxadiazol-5-one], the concentration for a half-maximal effect (EC50) was 3.8 nM. As for `Cc1cc(-n2nc3c(c2-n2ccn(-c4ccc5c(cnn5CC(F)(F)F)c4F)c2=O)[C@H](C)N(C(=O)c2cc4cc(C5CCOCC5)ccc4n2[C@@]2(c4noc(=O)[nH]4)C[C@@H]2C)CC3)cc(C)c1Cl` [Example 44, 3-[(1S,2S)-1-[2-[(4S)-2-(4-chloro-3,5-dimethylphenyl)-3-[3-[4-fluoro-1-(2,2,2-trifluoroethyl)indazol-5-yl]-2-oxoimidazol-1-yl]-4-methyl-6,7-dihydro-4H-pyrazolo[4,3-c]pyridine-5-carbonyl]-5-(oxan-4-yl)indol-1-yl]-2-methylcyclopropyl]-4H-1,2,4-oxadiazol-5-one], a half-maximal effect (EC50) was put at 1.5 nM. To `Cc1cc(-n2nc3c(c2-n2ccn(-c4ccc5c(cnn5CC(C)(C)O)c4F)c2=O)[C@H](C)N(C(=O)c2cc4cc([C@H]5CCOC(C)(C)C5)ccc4n2[C@@]2(c4noc(=O)[nH]4)C[C@@H]2C)CC3)cc(C)c1F` [Example 38, 3-[(1S,2S)-1-[5-[(4S)-2,2-dimethyloxan-4-yl]-2-[(4S)-2-(4-fluoro-3,5-dimethylphenyl)-3-[3-[4-fluoro-1-(2-hydroxy-2-methylpropyl)indazol-5-yl]-2-oxoimidazol-1-yl]-4-methyl-6,7-dihydro-4H-pyrazolo[4,3-c]pyridine-5-carbonyl]indol-1-yl]-2-methylcyclopropyl]-4H-1,2,4-oxadiazol-5-one] belongs 1.7 nM. Take `COc1nccc(-c2cc3cc(C(=O)N4CCc5nn(-c6cc(C)c(F)c(C)c6)c(-n6ccn(-c7ccc8c(cnn8C)c7)c6=O)c5[C@@H]4C)n([C@@]4(c5noc(=O)[nH]5)C[C@@H]4C)c3cc2F)c1C` [compound 74, 3-[(1S,2S)-1-[6-Fluoro-2-[(4S)-2-(4-fluoro-3,5-dimethylphenyl)-4-methyl-3-[3-(1-methylindazol-5-yl)-2-oxoimidazol-1-yl]-6,7-dihydro-4H-pyrazolo[4,3-c]pyridine-5-carbonyl]-5-(2-methoxy-3-methylpyridin-4-yl)indol-1-yl]-2-methylcyclopropyl]-4H-1,2,4-oxadiazol-5-one]: the 50% effective concentration (EC50) was 6.2 nM. In the case of `COCCN(C(C)=O)C12C3C4C1C1C2C3C41n1ccn(-c2c3c(nn2-c2cc(C)c(F)c(C)c2)CCN(C(=O)c2cc4cc(C5CCOCC5)ccc4n2[C@@]2(c4noc(=O)[nH]4)C[C@@H]2C)[C@H]3C)c1=O` (stereo partly drawn) [compound 57, N-[4-[3-[(4S)-2-(4-fluoro-3,5-dimethylphenyl)-4-methyl-5-[1-[(1S,2S)-2-methyl-1-(5-oxo-4H-1,2,4-oxadiazol-3-yl)cyclopropyl]-5-(oxan-4-yl)indole-2-carbonyl]-6,7-dihydro-4H-pyrazolo[4,3-c]pyridin-3-yl]-2-oxoimidazol-1-yl]cuban-1-yl]-N-(2-methoxyethyl)acetamide], a half-maximal response (EC50) required 8.1 nM. Turning to `COCCn1ncc2cc(-n3ccn(-c4c5c(nn4-c4cc(C)c(F)c(C)c4)CCN(C(=O)c4cc6cc([C@H]7CCOC(C)(C)C7)ccc6n4[C@@]4(c6noc(=O)[nH]6)C[C@@H]4C)[C@H]5C)c3=O)c(F)cc21` [compound 71, 3-[(1S,2S)-1-[5-[(4S)-2,2-dimethyloxan-4-yl]-2-[(4S)-2-(4-fluoro-3,5-dimethylphenyl)-3-[3-[6-fluoro-1-(2-methoxyethyl)indazol-5-yl]-2-oxoimidazol-1-yl]-4-methyl-6,7-dihydro-4H-pyrazolo[4,3-c]pyridine-5-carbonyl]indol-1-yl]-2-methylcyclopropyl]-4H-1,2,4-oxadiazol-5-one], a half-maximal effect (EC50) was put at 1.3 nM. For `Cc1cc(-n2nc3c(c2-n2ccn(-c4ccc5c(cnn5CC5(C)COC5)c4)c2=O)[C@H](C)N(C(=O)c2cc4cc(C5CCOCC5)ccc4n2[C@@]2(c4noc(=O)[nH]4)C[C@@H]2C)CC3)cc(C)c1F` [Example 17, 3-[(1S,2S)-1-[2-[(4S)-2-(4-fluoro-3,5-dimethylphenyl)-4-methyl-3-[3-[1-[(3-methyloxetan-3-yl)methyl]indazol-5-yl]-2-oxoimidazol-1-yl]-6,7-dihydro-4H-pyrazolo[4,3-c]pyridine-5-carbonyl]-5-(oxan-4-yl)indol-1-yl]-2-methylcyclopropyl]-4H-1,2,4-oxadiazol-5-one] the value was 1 nM. For `Cc1cc(-n2nc3c(c2-n2ccn(-c4ccc5c(cnn5C)c4Cl)c2=O)[C@H](C)N(C(=O)c2cc4cc(C5CCOCC5)ccc4n2[C@@]2(c4noc(=O)[nH]4)C[C@@H]2C)CC3)cc(C)c1F` [compound 72, 3-[(1S,2S)-1-[2-[(4S)-3-[3-(4-chloro-1-methylindazol-5-yl)-2-oxoimidazol-1-yl]-2-(4-fluoro-3,5-dimethylphenyl)-4-methyl-6,7-dihydro-4H-pyrazolo[4,3-c]pyridine-5-carbonyl]-5-(oxan-4-y)indol-1-yl]-2-methylcyclopropyl]-4H-1,2,4-oxadiazol-5-one] the value was 2.3 nM; for `Cc1cc(-n2nc3c(c2-n2ccn(-c4ccc5c(cnn5CCF)c4)c2=O)[C@H](C)N(C(=O)c2cc4cc(C5CCOCC5)ccc4n2[C@@]2(c4noc(=O)[nH]4)C[C@@H]2C)CC3)cc(C)c1F` [Example 26, 3-[(1S,2S)-1-[2-[(4S)-2-(4-fluoro-3,5-dimethylphenyl)-3-[3-[1-(2-fluoroethyl)indazol-5-yl]-2-oxoimidazol-1-yl]-4-methyl-6,7-dihydro-4H-pyrazolo[4,3-c]pyridine-5-carbonyl]-5-(oxan-4-yl)indol-1-yl]-2-methylcyclopropyl]-4H-1,2,4-oxadiazol-5-one], 0.77 nM; for `COCCn1ncc2cc(-n3ccn(-c4c5c(nn4-c4cc(C)c(F)c(C)c4)CCN(C(=O)c4cc6cc(-c7ccnc(OC)c7C)ccc6n4[C@@]4(c6noc(=O)[nH]6)C[C@@H]4C)[C@H]5C)c3=O)ccc21` [Example 11, 3-[(1S,2S)-1-[2-[(4S)-2-(4-fluoro-3,5-dimethylphenyl)-3-[3-[1-(2-methoxyethyl)indazol-5-yl]-2-oxoimidazol-1-yl]-4-methyl-6,7-dihydro-4H-pyrazolo[4,3-c]pyridine-5-carbonyl]-5-(2-methoxy-3-methylpyridin-4-yl)indol-1-yl]-2-methylcyclopropyl]-4H-1,2,4-oxadiazol-5-one], 1.1 nM.
